Reference: the NIST ThermoML archive (doi:10.1021/je060271a)
“And” between values parts separate entries of the source, which are not always exact repeats. Equal values may be shown once.

Conditions: Liquid, Vibrating tube method

CCCCCCCC(=O)OCC(COC(=O)CCCCCCC)(COC(=O)CCCCCCC)COC(=O)CCCCCCC [pentaerythritol tetraoctanoate]
Conditions | mass density
303.15 K, 32860 kPa | 974.3 kg/m3
303.15 K, 32891 kPa | 974.3 kg/m3
303.15 K, 32922 kPa | 974.2 kg/m3
303.15 K, 32960 kPa | 974.3 kg/m3
303.15 K, 32992 kPa | 974.4 kg/m3
303.15 K, 33022 kPa | 974.3 kg/m3
303.15 K, 33060 kPa | 974.4 kg/m3
303.15 K, 33092 kPa | 974.4 kg/m3
303.15 K, 33129 kPa | 974.4 kg/m3
303.15 K, 33161 kPa | 974.4 kg/m3
303.15 K, 33192 kPa | 974.4 kg/m3
303.15 K, 33231 kPa | 974.5 kg/m3
303.15 K, 33263 kPa | 974.4 kg/m3
303.15 K, 33295 kPa | 974.5 kg/m3
303.15 K, 33327 kPa | 974.5 kg/m3
303.15 K, 33366 kPa | 974.6 kg/m3
303.15 K, 33398 kPa | 974.6 kg/m3
303.15 K, 33437 kPa | 974.6 kg/m3
303.15 K, 33469 kPa | 974.5 kg/m3
303.15 K, 33502 kPa | 974.6 kg/m3
303.15 K, 33541 kPa | 974.8 kg/m3
303.15 K, 33574 kPa | 974.6 kg/m3
303.15 K, 33607 kPa | 974.6 kg/m3
303.15 K, 33647 kPa | 974.7 kg/m3
303.15 K, 33682 kPa | 974.8 kg/m3
303.15 K, 33716 kPa | 974.7 kg/m3
303.15 K, 33760 kPa | 974.6 kg/m3
303.15 K, 33796 kPa | 974.8 kg/m3
303.15 K, 33832 kPa | 974.9 kg/m3
303.15 K, 33864 kPa | 974.9 kg/m3
303.15 K, 33892 kPa | 974.7 kg/m3
303.15 K, 33915 kPa | 974.9 kg/m3
303.15 K, 33938 kPa | 974.8 kg/m3
303.15 K, 33965 kPa | 975 kg/m3
303.15 K, 33988 kPa | 974.9 kg/m3
303.15 K, 34016 kPa | 974.8 kg/m3
303.15 K, 34039 kPa | 974.9 kg/m3
303.15 K, 34062 kPa | 975 kg/m3
303.15 K, 34092 kPa | 974.9 kg/m3
303.15 K, 34116 kPa | 975 kg/m3
303.15 K, 34141 kPa | 974.9 kg/m3
303.15 K, 34166 kPa | 975 kg/m3
303.15 K, 34196 kPa | 974.9 kg/m3
303.15 K, 34222 kPa | 975 kg/m3
303.15 K, 34255 kPa | 975.2 kg/m3
303.15 K, 34284 kPa | 975.1 kg/m3
303.15 K, 34313 kPa | 975 kg/m3
303.15 K, 34325 kPa | 975 kg/m3
303.15 K, 34326 kPa | 975.1 kg/m3
303.15 K, 34328 kPa | 975.1 kg/m3
303.15 K, 34329 kPa | 975.2 kg/m3
303.15 K, 34330 kPa | 975.2 kg/m3
303.15 K, 34332 kPa | 975.2 kg/m3
303.15 K, 34333 kPa | 975.1 kg/m3 and 975.2 kg/m3
303.15 K, 34335 kPa | 975.1 kg/m3
303.15 K, 34336 kPa | 975 kg/m3
303.15 K, 34337 kPa | 975 kg/m3
303.15 K, 34339 kPa | 975 kg/m3
303.15 K, 34340 kPa | 975 kg/m3 and 975.1 kg/m3
303.15 K, 34342 kPa | 975 kg/m3
303.15 K, 34343 kPa | 975 kg/m3
303.15 K, 34349 kPa | 975.1 kg/m3
303.15 K, 34350 kPa | 975 kg/m3
303.15 K, 34361 kPa | 975.2 kg/m3
303.15 K, 34371 kPa | 975.2 kg/m3
303.15 K, 34374 kPa | 975 kg/m3
303.15 K, 34375 kPa | 975.2 kg/m3
303.15 K, 34377 kPa | 975.2 kg/m3
303.16 K, 3295.7 kPa | 957.4 kg/m3
303.16 K, 3309.7 kPa | 957.5 kg/m3
303.16 K, 3323.8 kPa | 957.4 kg/m3
303.16 K, 3335.4 kPa | 957.5 kg/m3
303.16 K, 3349.9 kPa | 957.5 kg/m3
303.16 K, 3364.5 kPa | 957.5 kg/m3
303.16 K, 3376.5 kPa | 957.4 kg/m3
303.16 K, 3390.8 kPa | 957.6 kg/m3
303.16 K, 3405.4 kPa | 957.4 kg/m3
303.16 K, 3418 kPa | 957.6 kg/m3
303.16 K, 3432.9 kPa | 957.5 kg/m3
303.16 K, 3447.8 kPa | 957.5 kg/m3
303.16 K, 3460.5 kPa | 957.5 kg/m3
303.16 K, 3475.7 kPa | 957.5 kg/m3
303.16 K, 3490.8 kPa | 957.6 kg/m3
303.16 K, 3504 kPa | 957.5 kg/m3
303.16 K, 3519.7 kPa | 957.6 kg/m3
303.16 K, 3535.3 kPa | 957.7 kg/m3
303.16 K, 3548.8 kPa | 957.5 kg/m3
303.16 K, 3564.8 kPa | 957.5 kg/m3
303.16 K, 3593.9 kPa | 957.6 kg/m3
303.16 K, 3609.8 kPa | 957.6 kg/m3
303.16 K, 3626.1 kPa | 957.6 kg/m3
303.16 K, 3640.3 kPa | 957.7 kg/m3
303.16 K, 3656.9 kPa | 957.6 kg/m3
303.16 K, 3671 kPa | 957.7 kg/m3
303.16 K, 3688.1 kPa | 957.8 kg/m3
323.14 K, 32674 kPa | 960.8 kg/m3
323.14 K, 32807 kPa | 961 kg/m3
323.15 K, 104.51 kPa | 940.7 kg/m3
323.15 K, 104.52 kPa | 940.7 kg/m3 and 940.6 kg/m3
323.15 K, 105.05 kPa | 940.7 kg/m3
323.15 K, 105.56 kPa | 940.7 kg/m3
323.15 K, 107.29 kPa | 940.7 kg/m3
323.15 K, 110.42 kPa | 940.7 kg/m3
323.15 K, 119.65 kPa | 940.6 kg/m3
323.15 K, 137.02 kPa | 940.6 kg/m3
323.15 K, 166.4 kPa | 940.7 kg/m3
323.15 K, 245.49 kPa | 940.7 kg/m3
323.15 K, 268.79 kPa | 940.8 kg/m3
323.15 K, 281.82 kPa | 940.8 kg/m3
323.15 K, 299.57 kPa | 941 kg/m3
323.15 K, 315.89 kPa | 940.9 kg/m3
323.15 K, 333.79 kPa | 940.8 kg/m3
323.15 K, 351.71 kPa | 940.9 kg/m3
323.15 K, 362.82 kPa | 940.9 kg/m3
323.15 K, 374.29 kPa | 940.8 kg/m3
323.15 K, 388.88 kPa | 941 kg/m3
323.15 K, 401.56 kPa | 941 kg/m3
323.15 K, 413.39 kPa | 941 kg/m3
323.15 K, 427.29 kPa | 940.9 kg/m3
323.15 K, 439.11 kPa | 940.9 kg/m3
323.15 K, 449.2 kPa | 941 kg/m3
323.15 K, 461 kPa | 940.9 kg/m3
323.15 K, 471.78 kPa | 941 kg/m3
323.15 K, 482.73 kPa | 940.9 kg/m3
323.15 K, 496.63 kPa | 940.9 kg/m3
323.15 K, 509.14 kPa | 940.9 kg/m3
323.15 K, 522.17 kPa | 941 kg/m3
323.15 K, 538.51 kPa | 941.1 kg/m3
323.15 K, 552.59 kPa | 941 kg/m3
323.15 K, 567.71 kPa | 940.9 kg/m3
323.15 K, 586.82 kPa | 941 kg/m3
323.15 K, 621.05 kPa | 941 kg/m3
323.15 K, 643.29 kPa | 941.1 kg/m3
323.15 K, 663.11 kPa | 941 kg/m3
323.15 K, 684.47 kPa | 941.1 kg/m3
323.15 K, 711.74 kPa | 941 kg/m3
323.15 K, 735.9 kPa | 941.1 kg/m3
323.15 K, 761.44 kPa | 941.1 kg/m3
323.15 K, 788.7 kPa | 941.2 kg/m3
323.15 K, 806.43 kPa | 941.1 kg/m3
323.15 K, 824.32 kPa | 941.2 kg/m3
323.15 K, 839.78 kPa | 941.2 kg/m3
323.15 K, 855.59 kPa | 941.1 kg/m3
323.15 K, 972.85 kPa | 941.4 kg/m3
323.15 K, 994.21 kPa | 941.3 kg/m3
323.15 K, 1021.5 kPa | 941.4 kg/m3
323.15 K, 1039.6 kPa | 941.3 kg/m3
323.15 K, 1067.7 kPa | 941.3 kg/m3
